# Experimental data as given in PubChem BioAssay AID2060610 (Molecular Pharmacology Branch, DTP, NCI, 2025).
# pIC50: −log10 of the molar value. Where “and” joins values, the source holds several entries; their conditions need not be identical. Equal values may be shown once.
# System: 616215-338-R-J1-PDC complex spheroids, viability % test/control
# Experiment: Anticancer human tumor 616215-338-R-J1-PDC patient-derived colon adenocarcinoma cell line growth inhibition [CLK]
# Details: for viability, T/C: stronger effect = lower value
# Outline: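 Multi-cell-type spheroids combined patient-derived tumor cells with HUVEC endothelial cells and human mesenchymal stem cells. Paired agents were dosed in half-log steps down from about clinical Cmax, or from 10 microM where Cmax was unknown.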
# [1] = curve of first compound, second compound 0.0316 µM
# [2] = curve of first compound, second compound 0.1 µM
# [3] = curve of first compound, second compound 0.316 µM
# [4] = curve of first compound, second compound 1 µM
# [5] = curve of first compound, second compound 3.16 µM
# [6] = curve of first compound, second compound 10 µM
# [7] = second compound 0.0316 µM, first compound 0.0316 µM
# [8] = second compound 0.0316 µM, first compound 0.1 µM
# [9] = second compound 0.0316 µM, first compound 0.316 µM
# [10] = second compound 0.0316 µM, first compound 1 µM
# [11] = second compound 0.1 µM, first compound 0.0316 µM
# [12] = second compound 0.1 µM, first compound 0.1 µM
# [13] = second compound 0.1 µM, first compound 0.316 µM
# [14] = second compound 0.1 µM, first compound 1 µM
# [15] = second compound 0.316 µM, first compound 0.0316 µM
# [16] = second compound 0.316 µM, first compound 0.1 µM
# [17] = second compound 0.316 µM, first compound 0.316 µM
# [18] = second compound 0.316 µM, first compound 1 µM
# [19] = second compound 1 µM, first compound 0.0316 µM
# [20] = second compound 1 µM, first compound 0.1 µM
# [21] = second compound 1 µM, first compound 0.316 µM
# [22] = second compound 1 µM, first compound 1 µM
# [23] = second compound 3.16 µM, first compound 0.0316 µM
# [24] = second compound 3.16 µM, first compound 0.1 µM
# [25] = second compound 3.16 µM, first compound 0.316 µM
# [26] = second compound 3.16 µM, first compound 1 µM
# [27] = second compound 10 µM, first compound 0.0316 µM
# [28] = second compound 10 µM, first compound 0.1 µM
# [29] = second compound 10 µM, first compound 0.316 µM
# [30] = second compound 10 µM, first compound 1 µM
# 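Further: spheroids exposed to agents for 7 days.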
# 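Wherever viability, T/C is given: 100% = DMSO vehicle wells.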
smiles,measurement,setting,value
CC(C)CC(NC(=O)C(Cc1ccccc1)NC(=O)c1cnccn1)B(O)O (stereo not drawn) + CNC(=O)c1ccc(Nc2nc(OC3CCCC3)c3c(-c4ccc5nc(C)oc5c4)c[nH]c3n2)c(OC)c1,pIC50,[1],8.27
same,pIC50,[2],8.37
same,pIC50,[3],> 9.02
same,pIC50,[4],> 9.02
same,pIC50,[5],> 9.02
same,pIC50,[6],> 9.02
same,"viability, T/C","second compound 0.0316 µM, first compound 0.000949 µM",93.4%
same,"viability, T/C","second compound 0.0316 µM, first compound 0.003 µM",110%
same,"viability, T/C","second compound 0.0316 µM, first compound 0.00949 µM",0.37%
same,"viability, T/C","second compound 0.0316 µM, first compound 0.03 µM",0.24%
same,"viability, T/C","second compound 0.0316 µM, first compound 0.0949 µM",0.24%
same,"viability, T/C","second compound 0.0316 µM, first compound 0.3 µM",1.23%
same,"viability, T/C","second compound 0.1 µM, first compound 0.000949 µM",55.6%
same,"viability, T/C","second compound 0.1 µM, first compound 0.003 µM",88.9%
same,"viability, T/C","second compound 0.1 µM, first compound 0.00949 µM",0.21%
same,"viability, T/C","second compound 0.1 µM, first compound 0.03 µM",0.22%
same,"viability, T/C","second compound 0.1 µM, first compound 0.0949 µM",0.18%
same,"viability, T/C","second compound 0.1 µM, first compound 0.3 µM",0.5%
same,"viability, T/C","second compound 0.316 µM, first compound 0.000949 µM",45.9%
same,"viability, T/C","second compound 0.316 µM, first compound 0.003 µM",38.4%
same,"viability, T/C","second compound 0.316 µM, first compound 0.00949 µM",0.2%
same,"viability, T/C","second compound 0.316 µM, first compound 0.03 µM",0.18%
same,"viability, T/C","second compound 0.316 µM, first compound 0.0949 µM",0.15%
same,"viability, T/C","second compound 0.316 µM, first compound 0.3 µM",0.86%
same,"viability, T/C","second compound 1 µM, first compound 0.000949 µM",45.3%
same,"viability, T/C","second compound 1 µM, first compound 0.003 µM",29.9%
same,"viability, T/C","second compound 1 µM, first compound 0.00949 µM",0.19%
same,"viability, T/C","second compound 1 µM, first compound 0.03 µM",0.15%
same,"viability, T/C","second compound 1 µM, first compound 0.0949 µM",1.71%
same,"viability, T/C","second compound 1 µM, first compound 0.3 µM",1.14%
same,"viability, T/C","second compound 3.16 µM, first compound 0.000949 µM",45.7%
same,"viability, T/C","second compound 3.16 µM, first compound 0.003 µM",18.6%
same,"viability, T/C","second compound 3.16 µM, first compound 0.00949 µM",0.16%
same,"viability, T/C","second compound 3.16 µM, first compound 0.03 µM",0.16%
same,"viability, T/C","second compound 3.16 µM, first compound 0.0949 µM",0.18%
same,"viability, T/C","second compound 3.16 µM, first compound 0.3 µM",1.5%
same,"viability, T/C","second compound 10 µM, first compound 0.000949 µM",45.9%
same,"viability, T/C","second compound 10 µM, first compound 0.003 µM",19.5%
same,"viability, T/C","second compound 10 µM, first compound 0.00949 µM",0.22%
same,"viability, T/C","second compound 10 µM, first compound 0.03 µM",0.18%
same,"viability, T/C","second compound 10 µM, first compound 0.0949 µM",1.53%
same,"viability, T/C","second compound 10 µM, first compound 0.3 µM",2.83%
CCN1CCN(Cc2ccc(Nc3ncc(F)c(-c4cc(F)c5nc(C)n(C(C)C)c5c4)n3)nc2)CC1 + CN1CCN(c2cc(C(=O)Nc3cc4cc(-c5cnn(C)c5)ccc4cn3)ccn2)CC1,pIC50,[1],6.02
same,pIC50,[2],6.05
same,pIC50,[3],> 8.50
same,pIC50,[4],> 8.50
same,pIC50,[5],> 8.50
same,pIC50,[6],> 8.50
same,"viability, T/C","second compound 0.0316 µM, first compound 0.00316 µM",111%
same,"viability, T/C","second compound 0.0316 µM, first compound 0.01 µM",105%
same,"viability, T/C",[7],112%
same,"viability, T/C",[8],149%
same,"viability, T/C",[9],175%
same,"viability, T/C",[10],46.2%
same,"viability, T/C","second compound 0.1 µM, first compound 0.00316 µM",114%
same,"viability, T/C","second compound 0.1 µM, first compound 0.01 µM",131%
same,"viability, T/C",[11],116%
same,"viability, T/C",[12],154%
same,"viability, T/C",[13],120%
same,"viability, T/C",[14],41.6%
same,"viability, T/C","second compound 0.316 µM, first compound 0.00316 µM",32.6%
same,"viability, T/C","second compound 0.316 µM, first compound 0.01 µM",32.6%
same,"viability, T/C",[15],37.6%
same,"viability, T/C",[16],48.6%
same,"viability, T/C",[17],42.6%
same,"viability, T/C",[18],12.8%
same,"viability, T/C","second compound 1 µM, first compound 0.00316 µM",0.15%
same,"viability, T/C","second compound 1 µM, first compound 0.01 µM",0.73%
same,"viability, T/C",[19],1.7%
same,"viability, T/C",[20],0.2%
same,"viability, T/C",[21],2.07%
same,"viability, T/C",[22],1.73%
same,"viability, T/C","second compound 3.16 µM, first compound 0.00316 µM",0.15%
same,"viability, T/C","second compound 3.16 µM, first compound 0.01 µM",0.16%
same,"viability, T/C",[23],0.15%
same,"viability, T/C",[24],0.13%
same,"viability, T/C",[25],0.76%
same,"viability, T/C",[26],0.18%
same,"viability, T/C","second compound 10 µM, first compound 0.00316 µM",0.2%
same,"viability, T/C","second compound 10 µM, first compound 0.01 µM",0.19%
same,"viability, T/C",[27],2.8%
same,"viability, T/C",[28],0.2%
same,"viability, T/C",[29],3.09%
same,"viability, T/C",[30],0.2%
CC(CO)NC(=O)c1cc(-c2ccc(Cl)cc2)nn(-c2cnn(C)c2)c1=O (stereo not drawn) + CNC(=O)c1ccc(Nc2nc(OC3CCCC3)c3c(-c4ccc5nc(C)oc5c4)c[nH]c3n2)c(OC)c1,pIC50,[1],< 5.00
same,pIC50,[2],6.31
same,pIC50,[3],> 7.50
same,pIC50,[4],> 7.50
same,pIC50,[5],> 7.50
same,pIC50,[6],> 7.50
same,"viability, T/C",[7],85.1%
same,"viability, T/C",[8],89%
same,"viability, T/C",[9],89.2%
same,"viability, T/C",[10],92.8%
same,"viability, T/C","second compound 0.0316 µM, first compound 3.16 µM",91.1%
same,"viability, T/C","second compound 0.0316 µM, first compound 10 µM",97.5%
same,"viability, T/C",[11],58.9%
same,"viability, T/C",[12],57.9%
same,"viability, T/C",[13],48.7%
same,"viability, T/C",[14],45.9%
same,"viability, T/C","second compound 0.1 µM, first compound 3.16 µM",50.6%
same,"viability, T/C","second compound 0.1 µM, first compound 10 µM",43.4%
same,"viability, T/C",[15],36.4%
same,"viability, T/C",[16],45.8%
same,"viability, T/C",[17],40.2%
same,"viability, T/C",[18],38.6%
same,"viability, T/C","second compound 0.316 µM, first compound 3.16 µM",48%
same,"viability, T/C","second compound 0.316 µM, first compound 10 µM",40.2%
same,"viability, T/C",[19],43.5%
same,"viability, T/C",[20],46%
same,"viability, T/C",[21],46.3%
same,"viability, T/C",[22],41.8%
same,"viability, T/C","second compound 1 µM, first compound 3.16 µM",44.2%
same,"viability, T/C","second compound 1 µM, first compound 10 µM",35.3%
same,"viability, T/C",[23],45%
same,"viability, T/C",[24],45.4%
same,"viability, T/C",[25],36.2%
same,"viability, T/C",[26],38.4%
same,"viability, T/C","second compound 3.16 µM, first compound 3.16 µM",31.7%
same,"viability, T/C","second compound 3.16 µM, first compound 10 µM",30.3%
same,"viability, T/C",[27],43.4%
same,"viability, T/C",[28],43.4%
same,"viability, T/C",[29],34.3%
same,"viability, T/C",[30],30.3%
same,"viability, T/C","second compound 10 µM, first compound 3.16 µM",34.3%
same,"viability, T/C","second compound 10 µM, first compound 10 µM",39.5%
Nc1ccccc1NC(=O)c1ccc(CNC(=O)OCc2cccnc2)cc1,"viability, T/C",compound 0.0316 µM,102% and 86.2%
same,"viability, T/C",compound 0.1 µM,98.2% and 95.1%
same,"viability, T/C",compound 0.316 µM,101% and 81.6%
same,"viability, T/C",compound 1 µM,107% and 92.8%
same,"viability, T/C",compound 3.16 µM,55.6% and 80.4%
same,"viability, T/C",compound 10 µM,13.5% and 14.7%
same,pIC50,curve of compound,5.43 and 5.27
